Measurements taken from article PMC7520419 (The AAPS Journal, 2020).
≈ marks a conversion by molar mass, not a printed value. Counter-ions that a name gives are not always drawn. Like-named read-outs stand apart in the source and are kept apart here.

Tests used:
[1] = PBPK food effect modeling (Simcyp V17.1 and/or GastroPlus V9.5; Model 1 / Model 2); parameters: species or system human
[2] = parameters: method as in Table I reference column; settings: not generated within this working group; ref Table I; cited from earlier work
[3] = parameters: Food Effect (graded symbols): key to the marks not given beside the values; settings: cited from earlier work
BCS classification = type: physicochemical
[4] = cited from earlier work; for Solubility at pH 6.5: not generated within this working group, ref Table I
[5] = Effective human jejunum permeability (Peff,man) used in the PBPK model; type: in vitro ADME; settings: human, 1 h
Method: Permeation rates of the compounds, including reference compounds, were measured in the apical-to-basolateral (AB) direction. The donor and receiver wells were sampled immediately after application of the compound to the donor well to determine baseline concentrations, and again after 1 h. Quantification was done using high-performance liquid chromatography combined with mass spectrometry (HPLC-MS/MS) analysis and monolayer integrity was verified by analyzing the receiver samples for LuY fluorescence in a plate reader.

Caco-2 = settings: cited from earlier work
physchem [6] = settings: 37 °C, thermodynamic from solid
Method: (§1) The solubility of the drug substances was determined in biorelevant media as well as in aqueous buffers at different pH. Fasted state simulated gastric fluid (FaSSGF) ([37]), fasted state simulated intestinal fluid (FaSSIF-V2) ([38]), and fed state simulated intestinal fluid (FeSSIF-V2) ([39]) were prepared according to the instructions provided by Biorelevant (Biorelevant.com Ltd., London, UK). […] For neutral compounds, solubility was determined at pH 2, pH 4, and pH 7.
(§2) For freely soluble compounds, the extent of solubilization was measured only up to 10 mg/mL.

physchem [7] = settings: pH 6.5, aqueous buffer, thermodynamic from solid
Method: as §1, §2

[8] = Solubility measurement in biorelevant media (FaSSIF-V2, FeSSIF-V2); settings: 37 °C, thermodynamic from solid
Method: as §1, §2

[9] = Solubility measurement in aqueous buffer solutions; settings: pH 6.5, aqueous buffer, thermodynamic from solid
Method: as §1, §2

[10] = Model 2, fasted, ref published clinical data (Table I)
[11] = Model 2, fed, ref published clinical data (Table I)
[12] = Model 2, ref published clinical data (Table I)
[13] = clinically observed PK change (AUC, Cmax) fed vs fasted, compiled by literature search
[14] = direction, AUC and/or Cmax ratio fed to fasted, BE criteria 0.8–1.25, ref drug label
[15] = Model 1, fasted, ref published clinical data (Table I)
[16] = Model 1, fed, ref published clinical data (Table I)
[17] = Model 1, ref published clinical data (Table I)
[18] = not generated within this working group, ref Table I
[19] = micronized formulation, healthy volunteers, high-fat breakfast

Row | Compound | AUC Ratio of Ratios (Sim'd / Obs'd) ([1]; Model 2) | Cmax Ratio of Ratios (Sim'd / Obs'd) ([1]; Model 2) | FaSSIF solubility [2] | FeSSIF solubility [2] | Observed AUC(0-inf) Fasted [3, 10] | Observed Cmax Fasted [3, 10] | Observed AUC(0-inf) Fed [3, 11] | Observed Cmax Fed [3, 11] | Observed AUC Ratios (Fed/Fasted) [3, 12] | Observed Cmax Ratios (Fed/Fasted) [3, 12] | Food Effect [3, 13] | Food Effect [3, 14] | BCS (BCS classification) | Solubility at pH 6.5 [4] | Effective permeability [5] | pKa (pKa; pKa (b, basic)) | AUC Ratio of Ratios (Sim'd / Obs'd) ([1]; Model 1) | Cmax Ratio of Ratios (Sim'd / Obs'd) ([1]; Model 1) | Observed AUC(0-inf) Fasted [3, 15] | Observed Cmax Fasted [3, 15] | other results
1 | Cc1c(O)cccc1C(=O)N[C@@H](CSc1ccccc1)[C@H](O)CN1C[C@H]2CCCC[C@H]2C[C@H]1C(=O)NC(C)(C)C [Nelfinavir mesylate] | 0.58 | 0.66 | 22^^ μg/ml | 243^^ μg/ml | 7.08 µg·h/mL | 895 ng/mL | 35.8 µg·h/mL | 3910 ng/mL | 5.06 | 4.37 | Positive (positive if the ratio of fed > fasted) | Positive (positive if the ratio of fed > fasted) | II/IV | 41.4^^ μg/ml | 70 ×10⁻⁶ cm/s | 6 | – | – | – | – | food effect (FE) direction ([3]; ref drug label): positive FE
2 | CC(C)(C)c1cc(C(C)(C)C)c(NC(=O)c2c[nH]c3ccccc3c2=O)cc1O [Ivacaftor] | – | – | 53^^ μg/ml | 550^^ μg/ml | – | – | – | – | – | – | Positive (positive if the ratio of fed > fasted) | Positive (positive if the ratio of fed > fasted) | II/IV | 0.5^^ μg/ml | – | – | 1.03 | 1.15 | 3.12 µg·h/mL | 148 ng/mL | Observed AUC(0-inf) Fed [3, 16]: 9.59 µg·h/mL; Observed Cmax Fed [3, 16]: 637 ng/mL; Observed AUC Ratios (Fed/Fasted) [3, 17]: 3.07; Observed Cmax Ratios (Fed/Fasted) [3, 17]: 4.30; Apparent permeability (Caco-2) (Caco-2; [18]): 11.9 (Caco-2)^^ × 10^−6 cm/s; pKa (pKa; pKa (a, acidic)): 9.4
3 | C[C@@H](O[C@H]1OCCN(Cc2n[nH]c(=O)[nH]2)[C@H]1c1ccc(F)cc1)c1cc(C(F)(F)F)cc(C(F)(F)F)c1 [Aprepitant] | – | – | 5.4 µg/mL | 92.4 µg/mL | 8.57 µg·h/mL | 496 ng/mL | 24.1 µg·h/mL | 1100 ng/mL | – | – | – | – | II/IV | 0.7 μg/ml | 240 ×10⁻⁶ cm/s | 2.45 | – | – | – | – | AUC observed, fasted ([3]; 100 mg micronized): 8.571 µg·h/mL; AUC observed, fed ([3]; 100 mg micronized): 24,057 ng.h/ml; Cmax observed, fasted ([3]; 100 mg micronized): 496 ng/mL; Cmax observed, fed ([3]; 100 mg micronized): 1098 ng/mL; Food Effect ([3]; Micronized, fed vs fasted, compiled by literature search): Positive (positive if the ratio of fed > fasted); Food Effect ([3]; Nanonized, fed vs fasted, compiled by literature search): None (none if no significant change in AUC and Cmax with food); increase in AUC with food [3, 19]: 2.8 fold; increase in Cmax with food [3, 19]: 2.2 fold; solubility in US Pharmacopeia Simulated Intestinal Fluids (SIFsp) ([4]; pH 6.8): 0.7 µg/mL (≈ 1.31 µM); solubility in water ([4]; pH 8.0, thermodynamically stable form): 7 µg/mL (≈ 13.1 µM); pKa (pKa; pKa (a, acidic)): 9.15
4 | CCC[C@H](NC(=O)[C@@H]1[C@H]2CCC[C@H]2CN1C(=O)[C@@H](NC(=O)[C@@H](NC(=O)c1cnccn1)C1CCCCC1)C(C)(C)C)C(=O)C(=O)NC1CC1 [Telaprevir] | 0.66 | 0.44 | – | – | – | – | – | – | – | – | – | – | – | – | 140 ×10⁻⁶ cm/s | – | 0.42 | 0.26 | – | – | Food Effect (graded symbols) ([3]; human, in vivo): +++; Observed AUC Ratios (Fed/Fasted) ([3]; human, in vivo): 3.71; Observed AUC(0-inf) Fasted ([3]; human, in vivo): 3.58 µg·h/mL; Observed AUC(0-inf) Fed ([3]; human, in vivo): 13.3 µg·h/mL; Observed Cmax Fasted ([3]; human, in vivo): 349 ng/mL; Observed Cmax Fed ([3]; human, in vivo): 2080 ng/mL; Observed Cmax Ratios (Fed/Fasted) ([3]; human, in vivo): 5.96; solubility (physchem [6]; FaSSIF solubility): 120 µg/mL (≈ 177 µM); solubility (physchem [6]; FeSSIF solubility): 80 µg/mL (≈ 118 µM); Apparent permeability (Caco-2) (Caco-2; Caco-2): 4.4 (Caco-2)^^ × 10^−6 cm/s; solubility (physchem [7]): 85 µg/mL (≈ 125 µM)
5 | Cc1ccc(Nc2nccc(N(C)c3ccc4c(C)n(C)nc4c3)n2)cc1S(N)(=O)=O [Pazopanib] | 0.24 | 0.44 | – | – | 824 µg·h/mL | 20700 ng/mL | 2020 µg·h/mL | 45200 ng/mL | 2.45 | 2.19 | Positive (positive if the ratio of fed > fasted) | Positive (positive if the ratio of fed > fasted) | II/IV | – | – | – | 0.13 | 0.12 | 824 µg·h/mL | 20700 ng/mL | fasted bioavailability ([3]; 800 mg dose): ~ 21%; fasted bioavailability, range ([3]; 800 mg dose): 14–39%; increase in AUC0-72h with a high-fat meal ([3]; 800 mg dose): 2.3 fold; increase in Cmax with a high-fat meal ([3]; 800 mg dose): 2.1 fold; increase in AUC0-72h with a high-fat meal ([3]; 800 mg dose, listed as pazopanib): approximately 2.3 fold; Observed AUC(0-inf) Fed [3, 16]: 2020 µg·h/mL; Observed Cmax Fed [3, 16]: 45200 ng/mL; Observed AUC Ratios (Fed/Fasted) [3, 17]: 2.45; Observed Cmax Ratios (Fed/Fasted) [3, 17]: 2.19; solubility ([8]; FaSSIF-V2 (fasted state simulated intestinal fluid), FaSSIF solubility): 1.2 µg/mL (≈ 2.74 µM); solubility ([8]; FeSSIF-V2 (fed state simulated intestinal fluid), FeSSIF solubility): 2.8 µg/mL (≈ 6.4 µM); solubility [9]: 0.5 µg/mL (≈ 1.14 µM); Apparent permeability (Caco-2) (Caco-2; [18]): 16.9 (Caco-2)^^ × 10^−6 cm/s
